According to patent US10774064B2 (Cadent Therapeutics, Inc., priority 2016, dated 2020):

Biological target: T1, small-conductance Ca2+-activated K+ channels (SK channels, subtype 2) (Homo sapiens, UniProt Q9H2S1)
T1 construct: expressed in transfected cells; host or cells: HEK293
Assay: whole-cell patch-clamp of ionic current through SK2 channels in HEK293 cells (SC100)
Assay type: cell-based
Conditions: whole-cell patch-clamp, HEK293 cells expressing SK2 channels; concentration that increases the basal current by 100%
Summary of the method: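 Whole-cell patch-clamp recording of current in HEK293 cells expressing SK2 channels. SC100 is the compound concentration that increases basal current by 100%.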

SC100 (μM) | SMILES
++ (++ means 200 nM-1000 nM) | Cc1cc(C)n(-c2cc(Cc3ncco3)cc(NC3CCC(F)(F)CC3)n2)n1 [NSSy5645, N-(4,4-difluorocyclohexyl)-6-(3,5-dimethyl-1H-pyrazol-1-yl)-4-(oxazol-2-ylmethyl)pyridin-2-amine]
+ (+ means >1 uM) | Cc1ccn(-c2nc(NC3CCC(F)(F)CC3)cc(OC3CNC3)n2)n1 [NSSy5648, 6-(azetidin-3-yloxy)-N-(4,4-difluorocyclohexyl)-2-(3-methyl-1H-pyrazol-1-yl)pyrimidin-4-amine]
++ (++ means 200 nM-1000 nM) | COC(=O)NCc1cc(NC2CCC(F)(F)CC2)nc(-n2ccc(CF)n2)c1 [NSSy5653, methyl ((2-((4,4-difluorocyclohexyl)amino)-6-(3-(fluoromethyl)-1H-pyrazol-1-yl)pyridin-4-yl)methyl)carbamate]
++ (++ means 200 nM-1000 nM) | Cc1csc(-c2cc(N3CCOCC3)cc(NC3CC=CCC3)n2)n1 (stereo not shown) [NSSy5655, N-(cyclohex-3-en-1-yl)-6-(4-methylthiazol-2-yl)-4-morpholinopyridin-2-amine]
+ (+ means >1 uM) | Cc1ccn(-c2nc(NC3CCC(F)CC3)cc(N3CCOCC3)n2)n1 (stereo not shown) [NSSy5662]
+ (+ means >1 uM) | Cc1ccn(-c2nc(NC3CC=CCC3)cc(N3CCOCC3)n2)n1 (stereo not shown) [NSSy5663]
++ (++ means 200 nM-1000 nM) | Cc1csc(-c2nc(NC3CCC(F)(F)CC3)cc(N3CC4(COC4)C3)n2)n1 [NSSy5664]
++ (++ means 200 nM-1000 nM) | Cc1ccn(-c2nc(NC3CC=CCC3)cc(N3CC4(COC4)C3)n2)n1 (stereo not shown) [NSSy5670]
++ (++ means 200 nM-1000 nM) | COC(=O)N(C)C1CC(Oc2cc(NC3CCC(F)(F)CC3)nc(-n3ccc(C)n3)n2)C1 (stereo not shown) [NSSy5672, methyl (3-((6-((4,4-difluorocyclohexyl)amino)-2-(3-methyl-1H-pyrazol-1-yl)pyrimidin-4-yl)oxy)cyclobutyl)(methyl)carbamate]
+++ (+++ means <200 nM) | Cc1csc(-c2cc(N3CCN(C)C(=O)C3)cc(NC3CCC(F)(F)CC3)n2)n1 [NSSy5674, 4-(2-((4,4-difluorocyclohexyl)amino)-6-(4-methylthiazol-2-yl)pyridin-4-yl)-1-methylpiperazin-2-one]
+++ (+++ means <200 nM) | Cc1ccn(-c2cc(C(O)c3cccnc3)cc(NC3CCC(F)(F)CC3)n2)n1 (stereo not shown) [NSSy5676, (2-((4,4-difluorocyclohexyl)amino)-6-(3-methyl-1H-pyrazol-1-yl)pyridin-4-yl)(pyridin-3-yl)methanol]
++ (++ means 200 nM-1000 nM) | Cc1csc(-c2cc(N3CC(N(C)C)C3)cc(NC3CCC(F)(F)CC3)n2)n1 [NSSy5677]
+ (+ means >1 uM) | Cc1ccn(-c2cc(OCc3nnc(C)o3)cc(NC3CCC(F)(F)CC3)n2)n1 [NSSy5681]
++ (++ means 200 nM-1000 nM) | Cc1csc(-c2cc(N3CC(C)(O)C3)cc(NC3CCC(F)(F)CC3)n2)n1 [NSSy5687]
++ (++ means 200 nM-1000 nM) | Cc1csc(-c2cc(N3CCOCC3)cc(NC3CCC(F)CC3)n2)n1 (stereo not shown) [NSSy5688]
+ (+ means >1 uM) | Cc1ccn(-c2nc(NC3CCC(F)CC3)cc(N3CC4(COC4)C3)n2)n1 (stereo not shown) [NSSy5691]

The next lines start with the compound.

SMILES | SC100 (μM)
COC(=O)c1nc(C)cc(NC2CCC(F)(F)CC2)n1 [IN11273-006-P1, methyl 4-((4,4-difluorocyclohexyl)amino)-6-methylpyrimidine-2-carboxylate] | + (+ means >1 uM)
Cc1cc(NC2CCC(F)(F)CC2)nc(Cn2ccc(C)n2)n1 [IN11273-015-P1, N-(4,4-difluorocyclohexyl)-6-methyl-2-((3-methyl-1H-pyrazol-1-yl)methyl)pyrimidin-4-amine] | + (+ means >1 uM)
Cc1cc(NC2CCC(F)(F)CC2)nc(Cn2nccc2C)n1 [IN11273-015-P2, N-(4,4-difluorocyclohexyl)-6-methyl-2-((5-methyl-1H-pyrazol-1-yl)methyl)pyrimidin-4-amine] | + (+ means >1 uM)
Cc1cc(NC2CCC(F)(F)CC2)nc(CC#N)n1 [IN11273-018-P1, 2-(4-((4,4-difluorocyclohexyl)amino)-6-methylpyrimidin-2-yl) acetonitrile] | + (+ means >1 uM)
Cc1ccn(-c2nc(NC3CCC(F)(F)CC3)cc(N3CC(=O)N(C)C(=O)C3)n2)n1 [IN11288-005-P1] | ++ (++ means 200 nM-1000 nM)
Cc1ccn(-c2nc(C#N)cc(NC3CCC(F)(F)CC3)n2)n1 [IN11288-025-P1] | + (+ means >1 uM)
OCCN(CCO)c1cc(NC2CCC(F)(F)CC2)nc(-n2ccc(CO)n2)n1 [IN11337-019-P1, 2,2′-((6-((4,4-difluorocyclohexyl)amino)-2-(3-(hydroxymethyl)-1H-pyrazol-1-yl)pyrimidin-4-yl)azanediyl)bis-(ethan-1-ol)] | + (+ means >1 uM)
Cc1cn(-c2cc(OC3COC3)cc(NC3CCC(F)(F)CC3)n2)nc1CF [NSSy5615, N-(4,4-difluorocyclohexyl)-6-(3-(fluoromethyl)-4-methyl-1H-pyrazol-1-yl)-4-(oxetan-3-yloxy)pyridin-2-amine] | ++ (++ means 200 nM-1000 nM)
FCc1ccn(-c2nc(NC3CCC(F)(F)CC3)cc(OC3CC(F)C3)n2)n1 (stereo not shown) [NSSy5618, N-(4,4-difluorocyclohexyl)-6-(3-fluorocyclobutoxy)-2-(3-(fluoromethyl)-1H-pyrazol-1-yl)pyrimidin-4-amine] | + (+ means >1 uM)
FCc1ccn(-c2nc(NC3CCC(F)(F)CC3)cc(OC3CC(F)(F)C3)n2)n1 [NSSy5619, 6-(3,3-difluorocyclobutoxy)-N-(4,4-difluorocyclohexyl)-2-(3-(fluoromethyl)-1H-pyrazol-1-yl)pyrimidin-4-amine] | + (+ means >1 uM)
CC(C)C(=O)NCc1cc(NC2CCC(F)(F)CC2)nc(-n2ccc(CF)n2)c1 [NSSy5620, N-((2-((4,4-difluorocyclohexyl)amino)-6-(3-(fluoromethyl)-1H-pyrazol-1-yl)pyridin-4-yl)methyl)isobutyramide] | ++ (++ means 200 nM-1000 nM)
CC(=O)NCc1cc(NC2CCC(F)(F)CC2)nc(-n2cc(C)c(CF)n2)c1 [NSSy5622, N-((2-((4,4-difluorocyclohexyl)amino)-6-(3-(fluoromethyl)-4-methyl-1H-pyrazol-1-yl)pyridin-4-yl)methyl)acetamide] | ++ (++ means 200 nM-1000 nM)
Cn1cnc(COc2cc(NC3CCC(F)(F)CC3)nc(-c3nc(CF)cs3)n2)n1 [NSSy5624, N-(4,4-difluorocyclohexyl)-2-(4-(fluoromethyl)thiazol-2-yl)-6-((1-methyl-1H-1,2,4-triazol-3-yl)methoxy)pyrimidin-4-amine] | + (+ means >1 uM)
Cc1csc(-c2nc(NC3CCC(F)(F)CC3)cc(OCc3cnnn3C)n2)n1 [NSSy5625] | +++ (+++ means <200 nM)
Cc1csc(-c2nc(NC3CCC(F)(F)CC3)cc(OC3CN(C(=O)C(C)C)C3)n2)n1 [NSSy5629] | +++ (+++ means <200 nM)
Cc1ccn(-c2nc(NC3CCC(F)(F)CC3)cc(N3CC4(COC4)C3)n2)n1 [NSSy5631] | ++ (++ means 200 nM-1000 nM)
COC(=O)NCc1cc(NC2CCC(F)(F)CC2)nc(-n2ccc(C)n2)c1 [NSSy5635] | ++ (++ means 200 nM-1000 nM)

SMILES | SC100 (μM)
Cc1ccn(-c2cc(CNC(=O)C(C)C)cc(NC3CCC(F)(F)CC3)n2)n1 [NSSy5637] | ++ (++ means 200 nM-1000 nM)
Cc1ccn(-c2cc(NC3CCC(F)(F)CC3)cc(OCc3ncnn3C)n2)n1 [NSSy5638, N-(4,4-difluorocyclohexyl)-2-((1-methyl-1H-1,2,4-triazol-5-yl)methoxy)-6-(3-methyl-1H-pyrazol-1-yl)pyridin-4-amine] | ++ (++ means 200 nM-1000 nM)
CC(=O)NCc1cc(NC2CCC(F)(F)CC2)nc(-c2nc(C)cs2)c1 [NSSy5640, N-((2-((4,4-difluorocyclohexyl)amino)-6-(4-methylthiazol-2-yl)pyridin-4-yl)methyl)acetamide] | ++ (++ means 200 nM-1000 nM)
Cc1ccn(-c2cc(OCc3ncn(C)n3)cc(NC3CCC(F)(F)CC3)n2)n1 [NSSy5641] | ++ (++ means 200 nM-1000 nM)
Cc1ccn(-c2cc(OCc3cnnn3C)cc(NC3CCC(F)(F)CC3)n2)n1 [NSSy5643] | ++ (++ means 200 nM-1000 nM)
CC(=O)NCc1cc(NC2CCC(F)(F)CC2)nc(-c2nc(CF)cs2)c1 [NSSy5644, N-((2-((4,4-difluorocyclohexyl)amino)-6-(4-(fluoromethyl)thiazol-2-yl)pyridin-4-yl)methyl) acetamide] | ++ (++ means 200 nM-1000 nM)
Cc1csc(-c2cc(N3CCOCC3)cc(NC3CCC(F)(F)CC3)n2)n1 [NSSy5646] | ++ (++ means 200 nM-1000 nM)
Cc1ccn(-c2nc(NC3CCC(F)(F)CC3)cc(OC3CC(F)C3)n2)n1 (stereo not shown) [NSSy5647, N-(4,4-difluorocyclohexyl)-6-(3-fluorocyclobutoxy)-2-(3-methyl-1H-pyrazol-1-yl)pyrimidin-4-amine] | ++ (++ means 200 nM-1000 nM)
Cc1csc(-c2nc(NC3CCC(F)(F)CC3)cc(OCc3nnc(C)o3)n2)n1 [NSSy5651] | ++ (++ means 200 nM-1000 nM)
Cc1csc(-c2cc(N3CC4(COC4)C3)cc(NC3CCC(F)(F)CC3)n2)n1 [NSSy5675] | +++ (+++ means <200 nM)
Cc1csc(-c2cc(OCc3cn(C)nn3)cc(NC3CCC(F)(F)CC3)n2)n1 [NSSy5680] | +++ (+++ means <200 nM)
Cc1csc(-c2cc(OCc3ncn(C)n3)cc(NC3CCC(F)(F)CC3)n2)n1 [NSSy5686] | ++ (++ means 200 nM-1000 nM)
Cc1csc(-c2nc(NC3CCC(F)(F)CC3)cc(OCc3ncnn3C)n2)n1 [NSSy5689] | + (+ means >1 uM)
Cc1csc(-c2nc(NC3CCC(F)(F)CC3)cc(OCc3ncn(C)n3)n2)n1 [NSSy5690] | ++ (++ means 200 nM-1000 nM)
Cc1csc(-c2cc(OCc3nnc(C)o3)cc(NC3CCC(F)(F)CC3)n2)n1 [NSSy5694] | +++ (+++ means <200 nM)
Cc1csc(-c2cc(OCc3ncnn3C)cc(NC3CCC(F)(F)CC3)n2)n1 [NSSy5695] | ++ (++ means 200 nM-1000 nM)
